# Results reported in publication PMC3934827 (Neuropharmacology, 2014).
# Where two headings read alike, the source gives them in different places.
# How the values were obtained:
# [1] = rat; ref Schmidt et al, 2008; cited from earlier work
# [2] = test system: cortical-, extrapyramidal motor- and autonomic-mediated functions; assay: Drug Effects on Nervous System
# [3] = test system: brain [18F] FDG uptake; assay: [18F] Fluorodeoxyglucose-PET imaging of brain; assay type: in vivo, Rhesus monkeys (Macaca mulatta)
# [4] = Plasma levels of MP-10 after subcutaneous administration; conditions: rhesus monkey, sc
# [5] = test system: stability and balance; assay: Perch test; assay type: in vivo, Rhesus monkeys (Macaca mulatta); conditions: MP-10 0.21 or 0.67 mg/kg s.c.
# [6] = test system: finger dexterity / fast hand movements; assay: Klüver Board test; assay type: in vivo, Rhesus monkeys (Macaca mulatta)
# [7] = test system: parkinsonian motor effects; assay: Standardized motor disability scale for parkinsonian primates; assay type: in vivo, Rhesus monkeys (Macaca mulatta)
# [8] = mouse; ref Verhoest et al, 2009; cited from earlier work
# [9] = test system: blood-brain barrier efflux transporters; conditions: ref Verhoest et al, 2009; cited from earlier work
# [10] = test system: PDE10A; assay: Estimated PDE10A target occupancy; assay type: in vivo, Rhesus monkeys (Macaca mulatta); conditions: calculated from Cp,u with IC50 1.0 nM
# [11] = test system: psychotic symptoms; conditions: ref DeMartinis, 2012, cited from earlier work
# [12] = test system: D2 receptor; conditions: ref Olsen et al., 2008; cited from earlier work
# [13] = MP-10 0.67 and 1.33 mg/kg s.c., p < 0.001
# [14] = MP-10 doses up to 0.21 mg/kg s.c.
# [15] = risperidone 0.032 and 0.1 mg/kg s.c.
compound,measurement,setting,value
"Cn1cc(-c2ccncc2)c(-c2ccc(OCc3ccc4ccccc4n3)cc2)n1 [MP-10, 2-[4-(1-methyl-4-pyridin-4-yl-1H-pyrazol-3-yl)-phenoxymethyl]-quinoline]",brain-to-plasma ratio (total brain-to-total plasma concentrations),[1],~ 0.9
same,DENS attentiveness,[2]; [13],decreased attentiveness
same,DENS involuntary movements,[2]; [13],induced oral dyskinesias
same,DENS reactivity,[2]; [13],decreased attentiveness and reactivity
same,total DENS scores,[2]; [13],significant effects
same,DENS involuntary movements,[2]; [14],no effect
same,DENS salivation,[2]; MP-10 s.c.,non-significant increases
same,SUV of [18F] FDG in striatal regions (pooled) vs vehicle,"[3]; MP-10 0.211 or 1.33 mg/kg s.c., p < 0.01, n=4",statistically significant increases
same,SUV of [18F] FDG in cortical regions (pooled) vs vehicle,"[3]; MP-10 0.211 or 1.33 mg/kg s.c., p < 0.02, n=4",statistically significant increases
same,FDG SUV in other brain regions relative to control (vehicle),"[3]; two doses of MP-10 (0.21, 1.33 mg/kg s.c.)",No significant differences
same,Tmax,[4],1 to 2 h
same,Perch test performance,[5],did not show any compromise
same,Perch test scores before and 90 min after injection,[5],zero
same,Klüver board task performance,[6]; MP-10 0.67 and 1.33 mg/kg s.c.,failed to perform the task
same,Klüver board index of success,[6]; [14],no effect
same,Klüver board action time,"[6]; MP-10 doses up to 0.21 mg/kg s.c., 90 min after injection",no effect
same,global motor disability scores,"[7]; MP-10 0.021, 0.067, or 0.21 mg/kg s.c., 3 hours after administration",no effect
same,social interaction,"[7]; MP-10 0.67 and 1.33 mg/kg s.c., similar at both doses, p < 0.001",decrease in social interaction
same,impairment in hand movements,[7]; [13],mild and similar at both doses
same,impairment in leg movements,[7]; [13],mild and similar at both doses
same,mobility score,[7]; [13],increased in a dose dependent fashion
same,posture score,[7]; [13],increased in a dose dependent fashion
same,global motor disability scores,"[7]; MP-10 0.67 and 1.33 mg/kg s.c., p < 0.001, 3 of the 4 monkeys",increase in global scores
same,brain-to-plasma ratio (total brain-to-total plasma concentrations),[8],~ 0.9
same,substrate for blood-brain barrier efflux transporters,[9],no evidence that it is a substrate
same,projected PDE10A target occupancy,"[10]; 0.21 mg/kg s.c., 1 h",16 ± 1%
same,projected PDE10A target occupancy,"[10]; 0.21 mg/kg s.c., 2 h",19 ± 3%
same,projected PDE10A target occupancy,"[10]; 0.21 mg/kg s.c., 3 h",17 ± 1%
same,projected PDE10A target occupancy,"[10]; 0.67 mg/kg s.c., 1 h",41 ± 5%
same,projected PDE10A target occupancy,"[10]; 0.67 mg/kg s.c., 2 h",47 ± 2%
same,projected PDE10A target occupancy,"[10]; 0.67 mg/kg s.c., 3 h",42 ± 3%
same,primary endpoint: reduction in psychotic symptoms,[11]; Phase 2A trial NCT01175135,did not meet the primary endpoint
same,adverse effects in Phase 2A trial,[11],sedation and side effects consistent with target engagement
"Cc1nc2n(c(=O)c1CCN1CCC(c3noc4cc(F)ccc34)CC1)CCCC2 [risperidone, reference compound]",behaviors scored using the DENS scale,[2]; risperidone 0.01 mg/kg s.c.,minimal effects
same,DENS involuntary movements,"[2]; risperidone 0.032 mg/kg s.c., all monkeys",significant involuntary movements
same,intensity of involuntary movements,[2]; risperidone 0.1 mg/kg s.c. vs 0.032 mg/kg,further increased
same,"DENS attentiveness, compared with MP-10",[2]; risperidone s.c.,less impairment
same,"DENS reactivity, compared with MP-10",[2]; risperidone s.c.,less impairment
same,D2 receptor TO at which antipsychotic efficacy is observed,[12],> 55%
same,"Klüver board action time, baseline vs 90 min",[6]; risperidone 0.01 mg/kg s.c.,No significant differences
same,Klüver board action time,"[6]; risperidone 0.032 and 0.1 mg/kg s.c., at cut off",60 s
same,motor disability scores (motor behavior),"[7]; risperidone 0.01 mg/kg s.c., 3 hours after administration",no effect
same,"hand movement score, in comparison to MP-10",[7]; [15],"greater, dose-dependent increases"
same,"leg movement score, in comparison to MP-10",[7]; [15],"greater, dose-dependent increases"
same,"mobility score, in comparison to MP-10",[7]; [15],notably less effect
same,"posture score, in comparison to MP-10",[7]; [15],roughly comparable increases
same,motor disability scores,"[7]; risperidone 0.032 and 0.1 mg/kg s.c., dose- and time-dependent, p < 0.001",significant increases
